Data: US20230295197A1, “STAT5 and STAT6 Degraders and Uses Thereof” (REGENTS OF THE UNIVERSITY OF MICHICAN, priority 2022, published 2023)
Where two headings read alike, the source gives them in different places.

Key:
STAT6 = target: T1, STAT6 (Homo sapiens, UniProt P42226); test: Immunoblotting (Western blot) analysis of STAT6 degradation efficiency of degraders in treated cells; type: cell-based
T1 construct: endogenous in cells; host or cells: MOLM-16, KU-812, SKNO1, MB231, L1236
T1 sequence (P42226 1-847): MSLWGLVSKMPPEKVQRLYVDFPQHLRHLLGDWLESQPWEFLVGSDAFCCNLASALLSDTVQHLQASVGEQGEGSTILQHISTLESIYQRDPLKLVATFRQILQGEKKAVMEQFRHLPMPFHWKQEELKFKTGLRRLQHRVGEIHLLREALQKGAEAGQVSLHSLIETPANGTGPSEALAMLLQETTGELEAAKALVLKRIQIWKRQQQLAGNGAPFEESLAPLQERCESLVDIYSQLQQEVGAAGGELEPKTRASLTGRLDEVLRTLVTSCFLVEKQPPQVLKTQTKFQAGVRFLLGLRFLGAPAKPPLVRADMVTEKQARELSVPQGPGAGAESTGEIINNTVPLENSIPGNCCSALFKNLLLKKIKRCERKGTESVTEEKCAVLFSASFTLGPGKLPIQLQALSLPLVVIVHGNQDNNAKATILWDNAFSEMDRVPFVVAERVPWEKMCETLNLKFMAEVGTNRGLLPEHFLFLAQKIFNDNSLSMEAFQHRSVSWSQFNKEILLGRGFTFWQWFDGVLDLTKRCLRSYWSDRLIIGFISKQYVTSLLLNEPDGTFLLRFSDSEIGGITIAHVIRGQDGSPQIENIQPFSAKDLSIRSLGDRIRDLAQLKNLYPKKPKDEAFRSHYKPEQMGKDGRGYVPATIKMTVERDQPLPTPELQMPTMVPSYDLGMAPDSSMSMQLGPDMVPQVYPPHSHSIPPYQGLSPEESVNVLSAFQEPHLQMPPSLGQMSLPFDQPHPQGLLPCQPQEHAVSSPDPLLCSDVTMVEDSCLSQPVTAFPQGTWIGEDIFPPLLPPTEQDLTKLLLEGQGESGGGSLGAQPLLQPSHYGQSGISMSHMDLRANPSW
Method in brief: (§1)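 Cells (~1 million per point) treated with compounds at indicated concentrations and times, lysed in RIPA with protease/phosphatase inhibitors; 20-40 μg protein run on SDS-PAGE and blotted to PVDF. STAT6 or STAT5 rabbit mAbs with GAPDH loading control, IRDye secondaries; near-infrared fluorescence scan, band intensity quantified.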

STAT5 = test: Immunoblotting (Western blot) analysis of STAT5 degradation efficiency of degraders in treated cells; type: cell-based
Method in brief: as §1

[1] = MOLM-16 cells, class symbols, read-out: DC50 S6 MOLM-16
[2] = MOLM-16 cells, class symbols, read-out: DC50 S5 MOLM-16
[3] = MOLM-16 cells, numeric bound, read-out: DC50 S6 MOLM-16
[4] = MOLM-16 cells, numeric bound, read-out: DC50 S5 MOLM-16
[5] = MB231 cells, read-out: DC50 S6 MB231
[6] = KU-812 cells, read-out: DC50 S5 KU-812
[7] = SKNO1 cells, read-out: DC50 S5 SKNO1

## CC(C)(C)C(=O)OCOP(=O)(O)C(F)(F)c1ccc2sc(C(=O)N[C@H](C(=O)N3C[C@@H](OCCCCCC#Cc4cccc5c4CN(C4CCC(=O)NC4=O)C5=O)C[C@H]3C(=O)N3CCO[C@H](c4ccccc4)C3)C(C)(C)C)cc2c1 (stereo partly drawn) [Compound 652, ((((2-(((2S)-1-((2S,4S)-4-((7-(2-(2,6-dioxopiperidin-3-yl)-1-oxoisoindolin-4-yl)hept-6-yn-1-yl)oxy)-2-((R)-2-phenylmorpholine-4-carbonyl)pyrrolidin-1-yl)-3,3-dimethyl-1-oxobutan-2-yl)carbamoyl)benzo[b]thiophen-5-yl)difluoromethyl)(hydroxy)phosphoryl)oxy)methyl pivalate]
STAT6; [1]
  DC50: < 100 nM
STAT5; [2]
  DC50: > 10000 nM

## Cc1ncsc1-c1ccc([C@H](CC(=O)NCCCCCCCCC(=O)N[C@@H]2C[C@@H](C(=O)Nc3ncc(-c4ccccc4)s3)N(C(=O)[C@@H](NC(=O)c3cc4cc(C(F)(F)P(=O)(O)O)ccc4s3)C(C)(C)C)C2)NC(=O)[C@@H]2C[C@@H](O)CN2C(=O)[C@@H](NC(=O)C2(F)CC2)C(C)(C)C)cc1 [Compound 578, (difluoro(2-(((S)-1-((2S,4R)-4-(9-((S)-3-((2S,4R)-1-((S)-2-(1-fluorocyclopropane-1-carboxamido)-3,3-dimethylbutanoyl)-4-hydroxypyrrolidine-2-carboxamido)-3-(4-(4-methylthiazol-5-yl)phenyl)propanamido)nonanamido)-2-((5-phenylthiazol-2-yl)carbamoyl)pyrrolidin-1-yl)-3,3-dimethyl-1-oxobutan-2-yl)carbamoyl)benzo[b]thiophen-5-yl)methyl)phosphonic acid]
STAT6; [3]
  DC50: > 300 nM
STAT5; [4]
  DC50: > 300 nM

## CC(C)(C)[C@H](NC(=O)c1cc2cc(C(F)(F)P(=O)(O)O)ccc2s1)C(=O)N1CCC[C@H]1C(=O)N(CCC(=O)NCCCCCC#Cc1cccc2c1CN(C1CCC(=O)NC1=O)C2=O)c1ccc(Br)cc1 (stereo partly drawn) [Compound 405, ((2-(((2S)-1-((2S)-2-((4-bromophenyl)(3-((7-(2-(2,6-dioxopiperidin-3-yl)-1-oxoisoindolin-4-yl)hept-6-yn-1-yl)amino)-3-oxopropyl)carbamoyl)pyrrolidin-1-yl)-3,3-dimethyl-1-oxobutan-2-yl)carbamoyl)benzo[b]thiophen-5-yl)difluoromethyl)phosphonic acid]
STAT6; [5]
  DC50: > 10000 nM
STAT6; [1]
  DC50: > 10000 nM
STAT5; [6]
  DC50: 100 to 1000 nM
STAT5; [2]
  DC50: 100 to 1000 nM
STAT5; [7]
  DC50: 100 to 1000 nM

## Cc1ncsc1-c1ccc([C@H](CC(=O)NCCCCCCC(=O)N[C@@H]2C[C@@H](C(=O)Nc3ncc(-c4ccccc4)s3)N(C(=O)[C@@H](NC(=O)c3cc4cc(C(F)(F)P(=O)(O)O)ccc4s3)C(C)(C)C)C2)NC(=O)[C@@H]2C[C@@H](O)CN2C(=O)[C@@H](NC(=O)C2(F)CC2)C(C)(C)C)cc1 [Compound 576, (difluoro(2-(((S)-1-((2S,4R)-4-(7-((S)-3-((2S,4R)-1-((S)-2-(1-fluorocyclopropane-1-carboxamido)-3,3-dimethylbutanoyl)-4-hydroxypyrrolidine-2-carboxamido)-3-(4-(4-methylthiazol-5-yl)phenyl)propanamido)heptanamido)-2-((5-phenylthiazol-2-yl)carbamoyl)pyrrolidin-1-yl)-3,3-dimethyl-1-oxobutan-2-yl)carbamoyl)benzo[b]thiophen-5-yl)methyl)phosphonic acid]
STAT6; [3]
  DC50: > 300 nM
STAT5; [4]
  DC50: > 300 nM

## CC(C)(C)[C@H](NC(=O)c1cc2cc(C(F)(F)P(=O)(O)O)ccc2s1)C(=O)N1CCC[C@H]1C(=O)N(CCC(=O)NCCCC#Cc1cccc2c1CN(C1CCC(=O)NC1=O)C2=O)c1ccc(Br)cc1 (stereo partly drawn) [Compound 406, ((2-(((2S)-1-((2S)-2-((4-bromophenyl)(3-((5-(2-(2,6-dioxopiperidin-3-yl)-1-oxoisoindolin-4-yl)pent-4-yn-1-yl)amino)-3-oxopropyl)carbamoyl)pyrrolidin-1-yl)-3,3-dimethyl-1-oxobutan-2-yl)carbamoyl)benzo[b]thiophen-5-yl)difluoromethyl)phosphonic acid]
STAT6; KU-812 cells, read-out: DC50 S6 KU-812
  DC50: > 10000 nM
STAT6; [5]
  DC50: > 10000 nM
STAT6; [1]
  DC50: > 10000 nM
STAT6; SKNO1 cells, read-out: DC50 S6 SKNO1
  DC50: > 10000 nM
STAT5; [6]
  DC50: 100 to 1000 nM
STAT5; [2]
  DC50: < 100 nM
STAT5; [7]
  DC50: 100 to 1000 nM
